Measured values as given in patent publication US9023789B2, “Amylin analogs and pharmaceutical compositions thereof” (Novo Nordisk A/S, priority 2012, dated 2015).
Numbered stars: 1 amine (or outer) side, 2 acyl side, 3 side chain; on linkers, the order of the positions; unused ones are H or OH. Bridge positions count the residues as written; N and C are the ends. Side chains are listed from the residue outwards. Peptide text beside a SMILES is read from it. * marks the point of attachment. C20 diacid = O=C(O)CCCCCCCCCCCCCCCCCCC(=O)*; γGlu = O=C(O)[C@H](CCC(=O)[*:2])N[*:1]; AEEA = NCCOCCOCC(=O)O

Key:
[1] = molecular target: T1, human amylin 3(a) receptor (human calcitonin receptor + RAMP-3) in BHK570 cells (Homo sapiens, UniProt O60896+P30988); test: ASSAY (II)a functional assay, human amylin receptor (CRE luciferase); type: cell-based
T1 construct: expressed in transfected cells
Summary of the method: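 Ligand exposure 3 h at 37 °C, 5% CO2 in DMEM with 10% FBS, 10 mM Hepes pH 7.4. cAMP-driven luciferase read by luminescence after 30 min LucLite at room temperature.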

[2] = molecular target: T2, human amylin receptor (membranes from Amylin 3(a)/CRE-luc cells) (Homo sapiens, UniProt O60896+P30988); test: ASSAY (V) binding to the human amylin receptor (SPA, 125I-rat amylin);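 further: competition binding of cell membranes (35 ng/µL) mixed with SPA beads in 384-well plates at 40 µL total volume, read by scintillation counting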
T2 construct: expressed in transfected cells
T2 sequence (P30988 25-474): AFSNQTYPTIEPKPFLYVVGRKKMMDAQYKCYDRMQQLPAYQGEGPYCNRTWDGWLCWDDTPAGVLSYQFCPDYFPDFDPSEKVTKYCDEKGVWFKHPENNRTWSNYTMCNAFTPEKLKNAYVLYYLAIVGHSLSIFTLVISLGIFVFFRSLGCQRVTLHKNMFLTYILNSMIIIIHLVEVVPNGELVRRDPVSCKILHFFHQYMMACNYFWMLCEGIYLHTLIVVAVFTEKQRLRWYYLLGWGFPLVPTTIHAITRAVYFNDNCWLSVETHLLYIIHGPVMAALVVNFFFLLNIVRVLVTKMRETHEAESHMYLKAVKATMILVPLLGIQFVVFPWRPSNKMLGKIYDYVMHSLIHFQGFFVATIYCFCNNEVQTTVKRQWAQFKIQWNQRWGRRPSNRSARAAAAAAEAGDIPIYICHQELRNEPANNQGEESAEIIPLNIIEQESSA
T2 sequence (O60896 24-148 partner): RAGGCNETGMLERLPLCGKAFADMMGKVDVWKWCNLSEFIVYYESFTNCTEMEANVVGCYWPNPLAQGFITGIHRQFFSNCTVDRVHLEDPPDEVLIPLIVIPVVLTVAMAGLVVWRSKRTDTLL

[3] = molecular target: T3, rat amylin receptor (rat calcitonin receptor + rat RAMP 3) (Rattus norvegicus, UniProt P32214+Q9JJ73); test: ASSAY (VI) binding to the rat amylin receptor; conditions: for IC50: binding to rat amylin receptor, read-out: rAmylin-R bind IC50
T3 construct: expressed in transfected cells; host or cells: BHK tk'ts 13 (transient, FuGENE 6), membranes
T3 sequence (P32214 25-479 isoform P32214-2 limits assumed): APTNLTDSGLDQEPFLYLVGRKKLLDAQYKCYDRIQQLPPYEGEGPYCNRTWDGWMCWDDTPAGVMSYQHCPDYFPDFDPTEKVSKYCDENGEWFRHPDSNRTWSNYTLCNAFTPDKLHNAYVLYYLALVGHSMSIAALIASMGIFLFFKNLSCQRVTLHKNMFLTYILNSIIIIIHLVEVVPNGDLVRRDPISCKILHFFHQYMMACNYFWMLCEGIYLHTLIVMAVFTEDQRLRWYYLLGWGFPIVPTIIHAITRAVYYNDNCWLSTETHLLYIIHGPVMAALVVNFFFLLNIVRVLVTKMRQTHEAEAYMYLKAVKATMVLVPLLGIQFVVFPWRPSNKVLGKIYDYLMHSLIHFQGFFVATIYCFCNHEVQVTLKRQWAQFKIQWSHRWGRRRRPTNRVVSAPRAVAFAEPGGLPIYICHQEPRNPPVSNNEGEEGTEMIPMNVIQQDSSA
T3 sequence (Q9JJ73 23-147 partner): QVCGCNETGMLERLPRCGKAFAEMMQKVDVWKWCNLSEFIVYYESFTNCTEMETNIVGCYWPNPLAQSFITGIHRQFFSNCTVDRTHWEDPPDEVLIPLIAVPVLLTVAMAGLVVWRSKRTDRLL
Summary of the method: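 This assay measured binding to the rat amylin receptor. BHK tk′ts 13 cells were transiently transfected with the rat calcitonin receptor using FuGENE® 6 (Roche), following the manufacturer's recommendations. About 48 hours after transfection, the cells were harvested and membranes were prepared from them for the binding determination.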

rat calcitonin receptor = molecular target: T4, rat calcitonin receptor (Rattus norvegicus, UniProt P32214); test: ASSAY (VIII) binding to the rat calcitonin receptor; conditions: Table 7, read-out: rCTR bind IC50
T4 construct: expressed in transfected cells; host or cells: BHK tk'ts 13 (transient, FuGENE 6), membranes
T4 sequence (P32214 25-479 isoform P32214-2 limits assumed): T3 sequence (P32214 25-479 isoform P32214-2 limits assumed)
Summary of the method: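 Rat calcitonin receptor is expressed transiently in BHK tk′ts 13 cells cultured in DMEM with 10% FBS. Roughly two days (approximately 48 hours) post-transfection, cells are harvested for membrane preparation.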

[4] = hCTR funct. EC50 divided by hAmylin-R funct. EC50
[5] = human functional selectivity: hCTR funct. EC50 / hAmylin-R funct. EC50
[6] = Table 5, selectivity, hCTR bind IC50 / hAmylin-R bind IC50
[7] = Table 5a, selectivity, hCTR bind IC50 / hAmylin-R bind IC50
[8] = Table 5b, selectivity, hCTR bind IC50 / hAmylin-R bind IC50
[9] = Table 5c, selectivity, hCTR bind IC50 / hAmylin-R bind IC50
[10] = Table 7, human binding selectivity, included for comparison
[11] = Table 7a (preferred compounds), human binding selectivity, included for comparison
[12] = ratio of human calcitonin receptor binding IC50 to human amylin receptor binding IC50
[13] = Table 7, rat binding selectivity, rCTR IC50 / rAmylin-R IC50
[14] = Table 7a (preferred compounds), rat binding selectivity, rCTR IC50 / rAmylin-R IC50
[15] = ratio of rCTR bind IC50 to rAmylin-R bind IC50
[16] = hCTR funct. EC50 over hAmylin-R funct. EC50

| SMILES | Ratio hCT/hAmylin funct. [1, 4] | Ratio hCT/hAmylin funct. [1, 5] | Ratio hCT/hAmylin binding [2, 6] | Ratio hCT/hAmylin binding [2, 7] | Ratio hCT/hAmylin binding [2, 8] | Ratio hCT/hAmylin binding [2, 9] | Ratio hCT/hAmylin binding [2, 10] | Ratio hCT/hAmylin binding [2, 11] | Ratio hCT/hAmylin binding [2, 12] | IC50 ([3]; Table 7) | Ratio rCT/rAmylin binding [3, 13] | Ratio rCT/rAmylin binding [3, 14] | Ratio rCT/rAmylin binding [3, 15] | IC50 (rat calcitonin receptor) | Ratio hCT/hAmylin funct. [1, 16] |
| --- | --- | --- | --- | --- | --- | --- | --- | --- | --- | --- | --- | --- | --- | --- | --- |
| CC[C@H](C)[C@H](NC(=O)[C@H](C)NC(=O)CNC(=O)[C@H](Cc1ccccc1)NC(=O)[C@H](CC(N)=O)NC(=O)[C@@H]1CCCN1C(=O)[C@H](CO)NC(=O)[C@H](CO)NC(=O)[C@H](Cc1c[nH]cn1)NC(=O)[C@H](CCCNC(=N)N)NC(=O)[C@H](CC(C)C)NC(=O)[C@H](Cc1ccccc1)NC(=O)[C@H](CC(N)=O)NC(=O)[C@H](C)NC(=O)[C@H](CC(C)C)NC(=O)[C@H](CCCNC(=N)N)NC(=O)[C@H](CCC(N)=O)NC(=O)[C@@H](NC(=O)[C@H](C)NC(=O)[C@@H]1CSSC[C@H](NC(=O)[C@H](CCCCN)NC(=O)CC[C@H](NC(=O)CCCCCCCCCCCCCCCCCCC(=O)O)C(=O)O)C(=O)N[C@@H](CC(N)=O)C(=O)N[C@@H]([C@@H](C)O)C(=O)N[C@@H](C)C(=O)N[C@@H]([C@@H](C)O)C(=O)N1)[C@@H](C)O)C(=O)N1CCC[C@H]1C(=O)N[C@@H](CO)C(=O)N[C@@H](CO)C(=O)N[C@H](C(=O)N[C@@H](CC(N)=O)C(=O)N[C@H](C(=O)NCC(=O)N[C@@H](CO)C(=O)N[C@@H](CCCCN)C(=O)N[C@H](C(=O)N[C@@H](Cc1ccc(O)cc1)C(N)=O)[C@@H](C)O)C(C)C)[C@@H](C)O [Example 34] | 8.4 | 8.4 | 64.4 | 64.4 | 64.4 | 64.4 | 64.4 | 64.4 | 64.4 | 1.72 nM | 52.0 | 52.0 | 52.0 | 89.2 nM |  |
| CC[C@H](C)[C@H](NC(=O)[C@H](C)NC(=O)CNC(=O)[C@H](Cc1ccccc1)NC(=O)[C@H](CC(N)=O)NC(=O)[C@@H]1CCCN1C(=O)[C@H](CO)NC(=O)[C@H](CO)NC(=O)[C@H](Cc1c[nH]cn1)NC(=O)[C@H](CCCNC(=N)N)NC(=O)[C@H](CC(C)C)NC(=O)[C@H](Cc1ccccc1)NC(=O)[C@H](CC(N)=O)NC(=O)[C@H](C)NC(=O)[C@H](CC(C)C)NC(=O)[C@H](CCCNC(=N)N)NC(=O)[C@H](CCC(N)=O)NC(=O)[C@@H](NC(=O)[C@H](C)NC(=O)[C@@H]1CSSC[C@H](NC(=O)[C@H](CCCCN)NC(=O)CC[C@H](NC(=O)CCCCCCCCCCCCCCCCCCC(=O)O)C(=O)O)C(=O)N[C@@H](CC(N)=O)C(=O)N[C@@H]([C@@H](C)O)C(=O)N[C@@H](C)C(=O)N[C@@H]([C@@H](C)O)C(=O)N1)[C@@H](C)O)C(=O)N1CCC[C@H]1C(=O)N[C@@H](CO)C(=O)N[C@@H](CO)C(=O)N[C@H](C(=O)N[C@@H](CC(N)=O)C(=O)N[C@H](C(=O)NCC(=O)N[C@@H](Cc1c[nH]cn1)C(=O)N[C@@H](CC(N)=O)C(=O)N[C@H](C(=O)N[C@@H](Cc1ccc(O)cc1)C(N)=O)[C@@H](C)O)C(C)C)[C@@H](C)O [Example 40] | 16.4 | 16.4 | 31.1 | 31.1 | 31.1 | 31.1 | 31.1 | 31.1 | 31.1 | 1.5 nM | 46.2 | 46.2 | 46.2 | 69.2 nM | 16.4 |
| CC[C@H](C)[C@H](NC(=O)[C@H](C)NC(=O)CNC(=O)[C@H](Cc1ccccc1)NC(=O)[C@H](CC(N)=O)NC(=O)[C@@H]1CCCN1C(=O)[C@H](CO)NC(=O)[C@H](CO)NC(=O)[C@H](Cc1c[nH]cn1)NC(=O)[C@H](CCCNC(=N)N)NC(=O)[C@H](CC(C)C)NC(=O)[C@H](Cc1ccccc1)NC(=O)[C@H](CC(N)=O)NC(=O)[C@H](C)NC(=O)[C@H](CC(C)C)NC(=O)[C@H](CCCNC(=N)N)NC(=O)[C@H](CCC(N)=O)NC(=O)[C@@H](NC(=O)[C@H](C)NC(=O)[C@@H]1CSSC[C@H](NC(=O)[C@H](CCCNC(=N)N)NC(=O)[C@@H](N)CCCCNC(=O)COCCOCCNC(=O)CC[C@H](NC(=O)CCCCCCCCCCCCCCCCCCC(=O)O)C(=O)O)C(=O)N[C@@H](CC(N)=O)C(=O)N[C@@H]([C@@H](C)O)C(=O)N[C@@H](C)C(=O)N[C@@H]([C@@H](C)O)C(=O)N1)[C@@H](C)O)C(=O)N1CCC[C@H]1C(=O)N[C@@H](CO)C(=O)N[C@@H](CO)C(=O)N[C@H](C(=O)N[C@@H](CC(N)=O)C(=O)N[C@H](C(=O)NCC(=O)N[C@@H](CO)C(=O)N[C@@H](Cc1c[nH]cn1)C(=O)N[C@H](C(=O)N[C@@H](Cc1ccc(O)cc1)C(N)=O)[C@@H](C)O)C(C)C)[C@@H](C)O [Example 45] (H-K([AEEA-γGlu-C20 diacid])RCNTATCATQRLANFLRHSSPNFGAIPSSTNVGSHTY-NH2; disulfide 3-8 (inferred)) | 17.0 | 17.0 | 26.8 | 26.8 | 26.8 | 26.8 | 26.8 | 26.8 | 26.8 | 0.623 nM | 67.1 | 67.1 | 67.1 | 41.8 nM | 17.0 |
